Results published in patent US4603121A, “Enkephalin analogs” (G. D. Searle & Co., priority 1984, dated 1986).

What was measured:
rat = settings: injected directly into the brain of the rat; cited from earlier work
[1] = tested on: brain opiate receptor sites; settings: partially purified brain opiate receptor sites; cited from earlier work
opiate activity = settings: cited from earlier work
[2] = tested on: PBQ-induced writhing in mice; experiment: PBQ-Writhing assay; format: in vivo; settings: male mice, subcutaneous, ED50 from number of animals protected compared to saline controls
Experimental: PBQ-Writhing assay. Groups of 10 male mice weighing 20 to 35 grams are used for each dose and for the vehicle control. Writhing is induced 30 or 60 minutes following drug or drug vehicle administration by the intraperitoneal injection of a 0.025 percent solution of PBQ and 5 percent ethanol. The number of separate writhing motions occurring in a ten minute period starting 5 minutes following the PBQ challenge is counted for each mouse. A positive antinociceptive affect is assured when an individual animals' writhing frequency is less than or equal to 50 percent of the vehicle control group median frequency. ED50 values based on the number of positive responders per dose group is determined using the method of Litchfield and Wilcoxon. M. R. Fennessy et al. The Assessment of and Problems Involved in the Experimental Evaluation of Narcotic Analgesics. In Methods in Narcotics Research, Marcel Dekker, Inc., New York, 1975. H. Bomberg et al. Use of Writhing Test for Evaluating Analgesic Activity of Narcotic Analgesics, Proc. Soc. Ext. Biol. Med. 118: 763-766, 1965.
The compounds of the invention were evaluated with respect to analgesic activity utilizing the test procedures described previously. Set forth in Table I below are the test results in the writhing assay for certain preferred compounds of the invention within formula I. The data summarized represents the ED50 calculated on the basis of the number of animals protected at a dose of 10 mg/Kg of the active test compound compared to saline controls.

methionine enkephalin
analgesic activity (rat): weak, fleeting analgesic activity | binding to opiate receptor sites [1]: binds stereospecifically | activity in bioassays for opiate activity (opiate activity): highly active

2,6-dimethyltyrosyl-D-norleucylglycyl-3-cyclohexyl-N-(6-methoxy-6-oxohexyl)-L-alaninamide, monohydrochloride(diastereomer-D) [Example 104]
Activity (ED50 mg/Kg - Administered Subcutaneously) [2]: 0.20 mg/kg

CSCC[C@@H](NC(=O)[C@@H](N)Cc1c(C)cc(O)cc1C)C(=O)NCC(=O)N[C@@H](CC1CCCCC1)C(=O)NCCCCCC(=O)O.Cl [Example 127, 2,6-dimethyl-L-tyrosyl-D-methionylglycyl-N-(5-carboxypentyl)-3-cyclohexyl-L-alaninamide, monohydrochloride]
Activity (ED50 mg/Kg - Administered Subcutaneously) [2]: 0.09 mg/kg

COC(=O)CCCCCNC(=O)[C@H](CC1CCCCC1)N(C)C(=O)CNC(=O)[C@@H](CCSC)NC(=O)[C@@H](N)Cc1c(C)cc(O)cc1C.Cl [Example 43, 2,6-dimethyl-L-tyrosyl-D-methionylglycyl-N-(6-methoxy-6-oxohexyl)-3-cyclohexyl-N^α -methyl-L-alaninamide monohydrochloride]
Activity (ED50 mg/Kg - Administered Subcutaneously) [2]: 0.20 mg/kg
